Reference: PubChem BioAssay (NCI)
Several values for one entry are separate records, joined by “and”; a condition that tells them apart may be missing. Identical values can stand only once.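 Values below derive from 48-hour exposures of cells grown in 96-well plates, with endpoints linearly interpolated between the two concentrations bracketing the appropriate inhibition level. Abbreviation: GI50, concentration required for 50% inhibition of growth. TGI denotes the concentration required for complete inhibition of growth.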 *1 amine or outer side, *2 acyl side, *3 side chain or, on linkers, in order; H or OH if unused. Where a SMILES comes first, the peptide text is derived from it. [ ]: non-standard residue; d: D form. The star is where a group is joined. ξ: configuration not given here. X15 = CCN(CC)c1ccc2cc(N*)c(=O)oc2c1; dIva = CC[C@@](C)(N)C(=O)O; X14 = O=C(OCCN[*:1])[*:2]; Aib = CC(C)(N)C(=O)O; ξP = O=C(O)C1CCCN1; βAla = NCCC(=O)O

Tests used:
Assay in all cases: NCI anticancer screen, dose series, 48 h
HCC-2998 colon = system: HCC-2998 colon
786-0 renal = system: 786-0 renal
NCI-H522 lung = system: NCI-H522 lung
A549 NSCLC = system: A549 NSCLC
NCI-H23 lung = system: NCI-H23 lung
MALME-3M melanoma = system: MALME-3M melanoma
SN12C renal = system: SN12C renal
NCI-H460 lung = system: NCI-H460 lung
OVCAR-5 ovarian = system: OVCAR-5 ovarian
K-562 leukemia = system: K-562 leukemia

SMILES | GI50 (HCC-2998 colon) [nM] | TGI (HCC-2998 colon) [µM] | GI50 (786-0 renal) [µM] | TGI (786-0 renal) | GI50 (NCI-H522 lung) [nM] | TGI (NCI-H522 lung) | GI50 (A549 NSCLC) [µM] | TGI (A549 NSCLC) | GI50 (NCI-H23 lung) [µM] | TGI (NCI-H23 lung) [µM] | GI50 (MALME-3M melanoma) | TGI (MALME-3M melanoma) | GI50 (SN12C renal) | TGI (SN12C renal) | GI50 (NCI-H460 lung) [µM] | TGI (NCI-H460 lung) | GI50 (OVCAR-5 ovarian) [µM] | TGI (OVCAR-5 ovarian) | GI50 (K-562 leukemia) [µM] | TGI (K-562 leukemia) [µM]
CCN1C(=O)N(CC)C2C1NN=c1s/c(=C\c3cc4ccccc4[nH]3)c(=O)n12 (centres undefined) | 38.2 | > 100 | 0.0387 | 22.3 µM | < 16.4 | 1.02 µM | 0.0433 | > 100 µM | 0.0445 | > 76.9 | 0.0388 µM | 36.9 µM | 0.0241 µM | 14.6 µM | 0.0331 | 14.8 µM | < 0.0128 | > 100 µM | < 0.01 | > 100
COc1ccc(/C=C2\CCC(CN(C)C)C2=O)cc1OC (centres undefined) | – | 14.5 | – | 6.42 µM | – | 4.23 µM | – | 37.4 µM | – | 32.3 | – | 11.7 µM | – | 8.35 µM | – | 26.6 µM | – | 29.8 µM | – | 9.12
CCN(CC)c1ccc2cc(NC(=O)OCCNC(=O)CCNC(=O)[C@H](CC(C)C)NC(=O)C(C)(C)NC(=O)C(C)(C)NC(=O)[C@H](CC(C)C)NC(=O)CCNC(=O)C(C)(C)NC(=O)[C@H](CC(C)C)NC(=O)CCNC(=O)[C@@](C)(CC)NC(=O)[C@H](C)NC(=O)CCNC(=O)C(C)(C)NC(=O)[C@H](C)NC(=O)[C@@H]3CCCN3C(=O)[C@@](C)(CC)NC(=O)[C@H](Cc3ccccc3)NC(=O)C3CCCN3C(=O)C(C)(C)NC(=O)C3CCCN3C(=O)C(C)(C)NC(C)=O)c(=O)oc2c1 (some centres undefined) (Ac-[Aib][ξP][Aib][ξP]F[dIva]PA[Aib][βAla]A[dIva][βAla]L[Aib][βAla]L[Aib][Aib]L[βAla][X14]-X15) | 4.77 | 0.127 | 0.0102 | 0.0319 µM | 3.05 | 0.0124 µM | 0.00354 | 0.115 µM | 0.00347 | 0.014 | 0.0021 µM | 0.00597 µM | 0.0034 µM | 0.0143 µM | 0.00348 | 0.0138 µM | 0.00506 | 0.116 µM | 0.00417 | 0.0237
Nc1nc(N)c(N=O)c(OCC2CCCCC2)n1 | 22500 | > 100 | 20.9 | > 100 µM and 84.1 µM | 10000 | > 73.3 µM and 50.7 µM | 15 | > 100 µM and 79.7 µM | 9.71 | > 100 | 3.06 µM and 7.32 µM | 36.8 µM and 52.7 µM | 5.87 µM | > 100 µM and 62.8 µM | 8.93 | > 80.5 µM and 38.1 µM | 17.2 | > 100 µM and 57.8 µM | – | > 100
FC(F)(F)c1ccc(-c2cnc(Cl)nc2NCc2cc(C(F)(F)F)cc(C(F)(F)F)c2)cc1 | 3820 | > 100 | 3.67 | > 100 µM | 2690 | 9.86 µM | 2.81 | > 100 µM | 3.28 | > 100 | 2.84 µM | 7.56 µM | 2.81 µM | > 100 µM | 3.16 | > 100 µM | 4.52 | > 100 µM | 3.77 | > 100
COc1cc2c3c(n(C)c(=O)c2cc1OC)-c1cc2c(cc1/C3=C\C(N)CN)OCO2 (centres undefined) | 3220 | 50 | 1.27 | 9.92 µM | 394 | – | 3.5 | 21.1 µM | 1.84 | 5.58 | 0.284 µM | 4.04 µM | 1.81 µM | > 26.4 µM | 1.5 | 7.58 µM | 4.43 | > 30.9 µM | 3.74 | > 71.5
C=C1CCc2occ(C)c2C2C1C1=C(CC(C)C1=O)C1OC12C (centres undefined) | – | > 100 | – | > 100 µM | – | > 100 µM | – | > 100 µM | – | > 100 | – | > 100 µM | – | > 100 µM | – | > 100 µM | – | > 100 µM | – | > 100
OCC1OC(n2cnc3c(=S)nc[nH]c32)C(O)C1O (centres undefined) | 2460 | > 2500 | 2.71 | > 2500 µM | 9270 | > 2500 µM | 42.5 | > 2500 µM | 4.15 | > 2500 | > 30 µM | 2480 µM and > 100 µM | 34.3 µM | > 2500 µM | 7.72 | > 2500 µM | 3.79 | > 2500 µM | 1.04 | > 2500
N.N.NCCCCCCN.O=C([O-])CC(=O)[O-].O=C([O-])CC(=O)[O-].[Pt+4].[Pt+4] | > 100000 | > 100 | 65.7 | > 100 µM | 29000 | > 100 µM | > 100 | > 100 µM | 57.3 | > 100 | > 100 µM | > 100 µM | 14.5 µM | > 100 µM | 6.59 | > 100 µM | > 100 | > 100 µM | > 86.3 | > 100
c1ccc(P(CCP(CCP(c2ccccc2)c2ccccc2)c2ccccc2)CCP(c2ccccc2)c2ccccc2)cc1 (centres undefined) | – | 4.52 | – | 3.21 µM | – | 5.13 µM | – | > 10 µM | – | > 10 | – | > 10 µM | > 10 µM and 3.94 µM | > 10 µM | – | 3.12 µM | – | > 10 µM | – | > 10
Nc1ccc(-c2ccc(N)cc2I)c(I)c1 | 19100 | 42.2 | 17.3 | 36.9 µM | 16400 | 36.7 µM | 29.9 | > 100 µM | 17.8 | 43.1 | 11.9 µM | 36.7 µM | 19.7 µM | 55.8 µM | 19.4 | 39.3 µM | 17.5 | 54.8 µM | 5.89 | 39.1
O=C(OCCBr)c1ccc(Cl)c([N+](=O)[O-])c1 | 1910 | 3.67 | 18.6 | 34.1 µM | 957 | 3.04 µM | 17.7 | 35.4 µM | 11.2 | 27.2 | 19.1 µM | 43.4 µM | 17.1 µM | 33.2 µM | 14.9 | 33.5 µM | 18 | 34.5 µM | 3.15 | 13.2
COc1cc(C2C3=C(COC3=O)Nc3cc4c(cc32)CCC4)cc2c1OCO2 (centres undefined) | 260 | 4.88 | 0.0881 | 14.6 µM | 20 | 0.0562 µM | 0.061 | 12.7 µM | 0.0427 | 3.04 | 19.1 µM | 74.6 µM | 0.0595 µM | 20.2 µM | 0.0394 | 6.18 µM | 0.231 | 41.7 µM | 0.0375 | 12.3
